Laboratory results from patent publication US11207252B2, “Synergistic preservative blends” (priority 2013, dated 2021).

How the values were obtained:
[1] = tested on: mixed inoculum of Staphylococcus aureus ATCC 6538, Pseudomonas aeruginosa ATCC 9027 and Escherichia coli ATCC 8739; assay: Challenge test, bacteria, in unpreserved shampoo (Shampoo ULD); settings: room temperature, Example 1 at 1% or its components at 0.06% sorbic acid, 0.2% benzyl alcohol, 0.37% 1,2-propanediol, 0.37% 1,4-butanediol
Experimental: A mixed inoculum containing approximately equal amounts of Staphylococcus aureus ATCC 6538, Pseudomonas aeruginosa ATCC 9027 and Escherichia coli ATCC 8739 was prepared according to the following procedure:
One colony of each bacteria strain was transferred from a stock culture to a tryptic soy agar plate which was incubated for 18-24 h at 37±2° C. Subsequently, some colonies of each of the thus-obtained cultures were transferred to a tryptic soy broth tube which was again incubated for 18-24 h at 37±2° C. to obtain a bacteria subculture, 200 μL of which were added to 2 mL of NaCl-peptone solution in a sterile plastic tube to obtain an inoculum containing approximately 10^9 cfu/mL of the respective bacterium. Finally, the mixed inoculum was prepared by mixing equal volumes of each inoculum.
For comparison purposes, additional 20 g samples were tested using equivalent amounts of each of the components of the preservative composition either alone or in two- or three-component combinations. Each sample was then inoculated with 200 μL of the mixed inoculum obtained in step A) and shaken vigorously to obtain a homogeneous contamination. The samples were then stored at room temperature and the bacteria count was determined in intervals of 7 days by taking 200 μL samples, mixing each of them with 1.8 mL of inactivation medium, and homogeneously plating 100 μL of the resulting mixtures on the surface of agar plates which were incubated for 2-3 days at 37±2° C. After the incubation period the colonies formed on the agar plates were counted and the results translated into cfu/mL. If necessary, serial dilutions in NaCl-peptone were prepared to cope with high bacteria counts.

[2] = tested on: mixed inoculum of Candida albicans ATCC 10231 and Aspergillus niger ATCC 16404; assay: Challenge test, fungi, in unpreserved shampoo pH 5.5 (Table 2); settings: shampoo of Table 2, pH 5.5, Example 1 at 1% or its components at 0.06% sorbic acid, 0.2% benzyl alcohol, 0.37% 1,2-propanediol, 0.37% 1,4-butanediol

## C/C=C/C=C/C(=O)O [Sorbic Acid]
[1]; 7 days
  Mixed Bacteria Germ Count, 7 days: >10^4 cfu/g
[1]; 14 days
  Mixed Bacteria Germ Count, 14 days: >10^3 cfu/g
[1]; 21 days
  Mixed Bacteria Germ Count, 21 days: 6.7 × 10^2 cfu/g
[1]; 28 days
  Mixed Bacteria Germ Count, 28 days: 2.0 × 10^1 cfu/g
[2]; 7 days
  Mixed Fungi Germ Count, 7 days: >10^5 cfu/g
[2]; 14 days
  Mixed Fungi Germ Count, 14 days: >10^4 cfu/g
[2]; 21 days
  Mixed Fungi Germ Count, 21 days: >10^5 cfu/g
[2]; 28 days
  Mixed Fungi Germ Count, 28 days: >10^3 cfu/g
